Values quoted from earlier work as cited in patent publication US20120237563A1, “CONTROLLED-RELEASE FORMULATIONS OF […] AND USES THEREOF” (UNIVERSITY OF FLORIDA RESEARCH […]., priority 2009, published 2012).

Details: clinical studies

COc1ccc(/C=C2\CCCN=C2c2cccnc2)c(OC)c1 [DMXBA, 3-(2,4-dimethoxybenzylidene)-anabaseine]
Safety of large oral doses: without adverse effects
Half-life (oral): two
